Read-outs that look alike come from different tables or passages of the source.
How the values were obtained:
HDAC6 [1] = test system: HDAC6; design: method as in PMID 29304284; details: printed in Figure 2, previously synthesised compound; cited from earlier work
A549 cells [2] = assay: Sulforhodamine B antiproliferative assay, A549; assay type: cell-based; details: Homo sapiens
Experimental: (§1) All human cancer cells were maintained in RPMI 1640 medium supplemented with 10% FBS and penicillin (100 units/ml)/streptomycin (100 µg/ml)/amphotericin B (0.25 µg/ml). All cells were maintained in humidified air containing 5% CO2 at 37 °C and cultured every 2–3 days. […]
(§2) Cells were seeded at the density of 5000 cells/well into 96-plate overnight. Basal cells were fixed with 10% trichloroacetic acid (TCA) to represent the cell population at the time of compound addition (T0). After additional incubation of DMSO (C) or different doses of test compounds (Tx) for 48 h, cells were fixed with 10% TCA and stained with SRB at 0.4% (w/v) in 1% AcOH. Unbound SRB was washed out using 1% AcOH and SRB bound cells were solubilised with 10 mM Trizma base. The absorbance was read at a wavelength of 515 nm. The 50% growth inhibition (GI50) was calculated by 100 − [(Tx – T0)/(C – T0)] × 100.

HCT116 cells [3] = assay: Sulforhodamine B antiproliferative assay, HCT116; assay type: cell-based; details: Homo sapiens, HCT-116, SRB, 48 h, values > 10 μM estimated from best curve fitting
Experimental: as §1, §2

HDAC1 = biological target: T1, HDAC1 (Homo sapiens, UniProt Q13547); assay: HDAC biochemical assay (Fluor-de-Lys), HDAC1; details: for Selectivity ratio of HDAC1 over HDAC6: IC50 HDAC1 / IC50 HDAC6; for IC50: human recombinant HDAC1, values > 10 μM estimated from best curve fitting
T1 construct: EurofinPanlabs (Taipei, Taiwan)
T1 sequence (Q13547 whole entry): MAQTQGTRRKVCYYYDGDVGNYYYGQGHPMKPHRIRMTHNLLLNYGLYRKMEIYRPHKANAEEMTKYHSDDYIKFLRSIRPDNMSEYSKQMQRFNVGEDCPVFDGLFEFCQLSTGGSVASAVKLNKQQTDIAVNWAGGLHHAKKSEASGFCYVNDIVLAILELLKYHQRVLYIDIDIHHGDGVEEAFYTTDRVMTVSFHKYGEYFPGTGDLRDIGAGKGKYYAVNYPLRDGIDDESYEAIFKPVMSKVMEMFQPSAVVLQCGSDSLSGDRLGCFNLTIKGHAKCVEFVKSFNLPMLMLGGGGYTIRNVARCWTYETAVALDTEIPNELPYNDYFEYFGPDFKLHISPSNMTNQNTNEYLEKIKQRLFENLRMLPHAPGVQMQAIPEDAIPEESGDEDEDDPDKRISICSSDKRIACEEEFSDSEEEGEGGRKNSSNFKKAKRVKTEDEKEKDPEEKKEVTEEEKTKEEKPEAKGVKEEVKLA

HDAC2 = biological target: T2, HDAC2 (Homo sapiens, UniProt Q92769); assay: HDAC biochemical assay (Fluor-de-Lys), HDAC2; details: for Selectivity ratio of HDAC2 over HDAC6: IC50 HDAC2 / IC50 HDAC6; for IC50: human recombinant HDAC2, dash = no inhibition or activity that could not be fitted to an IC50 curve
T2 construct: EurofinPanlabs (Taipei, Taiwan)
T2 sequence (Q92769 whole entry): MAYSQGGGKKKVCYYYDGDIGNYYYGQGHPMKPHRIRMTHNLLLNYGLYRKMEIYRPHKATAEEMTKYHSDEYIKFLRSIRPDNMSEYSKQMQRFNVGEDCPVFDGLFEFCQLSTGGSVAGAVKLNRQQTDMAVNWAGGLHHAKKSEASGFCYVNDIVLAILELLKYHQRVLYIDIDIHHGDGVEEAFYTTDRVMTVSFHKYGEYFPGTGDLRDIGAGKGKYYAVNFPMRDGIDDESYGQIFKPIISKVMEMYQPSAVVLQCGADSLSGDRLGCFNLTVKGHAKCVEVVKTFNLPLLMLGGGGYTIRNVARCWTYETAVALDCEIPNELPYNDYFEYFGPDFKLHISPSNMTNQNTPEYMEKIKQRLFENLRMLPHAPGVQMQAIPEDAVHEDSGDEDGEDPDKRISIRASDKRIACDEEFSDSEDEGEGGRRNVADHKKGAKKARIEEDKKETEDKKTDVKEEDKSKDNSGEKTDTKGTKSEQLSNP

HDAC6 [4] = biological target: T3, HDAC6 (Homo sapiens, UniProt Q9UBN7); assay: HDAC biochemical assay (Fluor-de-Lys), HDAC6; details: human recombinant HDAC6
T3 construct: EurofinPanlabs (Taipei, Taiwan)
T3 sequence (Q9UBN7 1-1215): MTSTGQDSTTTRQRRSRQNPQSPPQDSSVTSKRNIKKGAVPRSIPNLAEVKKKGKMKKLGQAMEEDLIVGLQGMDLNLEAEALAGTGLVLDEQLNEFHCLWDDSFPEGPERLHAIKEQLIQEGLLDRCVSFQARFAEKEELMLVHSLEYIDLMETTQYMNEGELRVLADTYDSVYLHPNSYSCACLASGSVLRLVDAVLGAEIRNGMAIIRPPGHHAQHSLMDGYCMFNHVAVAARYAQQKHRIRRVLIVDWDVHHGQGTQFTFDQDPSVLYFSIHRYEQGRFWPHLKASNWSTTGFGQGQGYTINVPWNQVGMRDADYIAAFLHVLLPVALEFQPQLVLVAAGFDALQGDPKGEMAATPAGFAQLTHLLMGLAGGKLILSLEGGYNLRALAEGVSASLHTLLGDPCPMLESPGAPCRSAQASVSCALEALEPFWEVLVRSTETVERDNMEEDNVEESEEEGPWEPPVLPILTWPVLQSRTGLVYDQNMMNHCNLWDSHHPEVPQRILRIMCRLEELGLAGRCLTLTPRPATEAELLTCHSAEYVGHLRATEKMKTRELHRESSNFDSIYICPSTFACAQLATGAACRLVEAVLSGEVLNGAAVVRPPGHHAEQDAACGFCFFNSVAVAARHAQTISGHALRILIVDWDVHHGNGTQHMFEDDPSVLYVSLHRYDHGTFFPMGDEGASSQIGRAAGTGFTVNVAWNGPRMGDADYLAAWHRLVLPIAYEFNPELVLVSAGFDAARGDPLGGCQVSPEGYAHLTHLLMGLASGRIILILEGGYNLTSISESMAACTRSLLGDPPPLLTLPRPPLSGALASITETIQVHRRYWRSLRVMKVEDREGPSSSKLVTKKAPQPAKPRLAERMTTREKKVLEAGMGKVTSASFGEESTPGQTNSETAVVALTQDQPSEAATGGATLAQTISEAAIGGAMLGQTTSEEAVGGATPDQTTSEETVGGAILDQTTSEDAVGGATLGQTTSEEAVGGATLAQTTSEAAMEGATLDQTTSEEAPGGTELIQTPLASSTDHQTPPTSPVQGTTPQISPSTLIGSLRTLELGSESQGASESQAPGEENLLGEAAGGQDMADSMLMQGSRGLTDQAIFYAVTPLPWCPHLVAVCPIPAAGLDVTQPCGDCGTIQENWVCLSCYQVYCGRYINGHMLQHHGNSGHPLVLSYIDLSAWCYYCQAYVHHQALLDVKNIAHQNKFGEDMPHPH

HDAC8 = biological target: T4, HDAC8 (Homo sapiens, UniProt Q9BY41); assay: HDAC biochemical assay (Fluor-de-Lys), HDAC8; details: for Selectivity ratio of HDAC8 over HDAC6: IC50 HDAC8 / IC50 HDAC6; for IC50: human recombinant HDAC8
T4 construct: EurofinPanlabs (Taipei, Taiwan)
T4 sequence (Q9BY41 1-377): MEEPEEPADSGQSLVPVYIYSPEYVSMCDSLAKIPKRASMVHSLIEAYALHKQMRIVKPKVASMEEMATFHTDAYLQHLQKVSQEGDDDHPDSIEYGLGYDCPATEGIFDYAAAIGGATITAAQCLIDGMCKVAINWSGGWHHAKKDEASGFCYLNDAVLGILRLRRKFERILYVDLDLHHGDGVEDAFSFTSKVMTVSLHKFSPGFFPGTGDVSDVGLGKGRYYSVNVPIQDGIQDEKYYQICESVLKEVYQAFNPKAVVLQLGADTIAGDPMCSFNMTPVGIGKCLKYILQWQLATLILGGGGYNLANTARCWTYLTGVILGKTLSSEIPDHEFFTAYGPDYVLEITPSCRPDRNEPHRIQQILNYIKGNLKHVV

A549 cells [5] = assay: Western blot analysis of apoptosis and DNA damage markers; assay type: cell-based, human; details: A549 cells treated for 48 h; 0.25, 5 and 10 µM
Experimental: buffer (20 mMTris-HCl pH 7.5, 150 mM NaCl, 1 mM Na2EDTA, 1 mM EGTA, 1% NP-40, 1% sodium deoxycholate, 0.1% SDS, 2.5 mM β-glycerylphosphate, 1 mM Na4P2O7, 5 mM NaF, 1 mM Na3VO4 and protease inhibitor cocktail from Millipore) on ice for 30 min following by centrifugation at 13000 rpm for 30 min. Protein concentrations were determined and equal amounts of protein were separated by 8–15% sodium dodecyl sulphate-polyacrylamide gel electrophoresis (SDS–PAGE) and transferred to poly(vinylidene difluoride) (PVDF) membranes. Membranes were immunoblotted with specific antibodies overnight at 4 °C and then applied to appropriate horseradish peroxidase-conjugated anti-mouse or anti-rabbit IgG secondary antibodies for 1 h at RT. Signals were detected using an enhanced chemiluminescence (Amersham, Buckinghamshire, UK).

A549 cells [6] = assay: Flow cytometry cell cycle analysis; assay type: cell-based, human; details: A549 cells, 0.25, 0.5, 10 μM, 48 h, propidium iodide
Experimental: Briefly, A549 cells were starved with EBM-2 medium overnight and were subsequently replenished with EGM-2 medium with or without 17, 25, and 26 (0.25, 0.5, 10 µM) for 48 h. After being trypsinized and fixed in ice-cold 75% MeOH for 1 h at −20 °C, A549 cells were washed with PBS and resuspended in 0.2 ml DNA extraction buffer (0.2 M Na2HPO4, 0.1 M citric acid; pH 7.8) for 30 min. Then the cells were stained with propidium iodide solution (PI; 100 µg/ml RNase, 80 µg/ml propidium iodide, 0.1% Triton X-100) in PBS. FACScan flow cytometry was utilised to determine cell cycle distribution, and data analysis was performed with CellQuest software (BD Biosciences).

A549 cells [7] = test system: A549 cells; design: method as in PMID 27344487; details: reference compounds, read-out: Antiproliferative activity IC50, A549; cited from earlier work
HCT116 cells [8] = test system: HCT116 cells; design: method as in PMID 27344487; details: reference compounds, read-out: Antiproliferative activity IC50, HCT116; cited from earlier work
[9] = A549 cells, SRB, 48 h, values > 10 μM estimated from best curve fitting, read-out: Antiproliferative activity IC50, A549

Compound: O=C(NO)c1ccc(CNc2cccc3cccnc23)cc1 [Compound 13, N-hydroxy-4-((quinolin-8-ylamino)methyl)benzamide]
- IC50 (HDAC6 [1]): 0.29 nM

Compound: O=C(NO)c1ccc(CNc2cccc3cc(-c4ccccc4)cnc23)cc1 [Compound 18, N-Hydroxy-4-[(3-phenyl-quinolin-8-ylamino)-methyl]-benzamide]
- IC50 (A549 cells [2]; [9]): 4970 ± 60 nM
- IC50 (HCT116 cells [3]): 4700 ± 380 nM
- Selectivity ratio of HDAC1 over HDAC6 (HDAC1): (273)
- IC50 (HDAC1): 5300 nM
- Selectivity ratio of HDAC2 over HDAC6 (HDAC2): (> 515)
- IC50 (HDAC2): > 10000 nM
- IC50 (HDAC6 [4]): 19.4 nM
- Selectivity ratio of HDAC8 over HDAC6 (HDAC8): (355)
- IC50 (HDAC8): 6880 nM
- melting point: 172.7 to 173.2 °C

Compound: O=C(NO)c1ccc(CNc2cccc3cc(-c4ccncc4)cnc23)cc1 [Compound 26, N-Hydroxy-4-(((3-(pyridin-4-yl)quinolin-8-yl)amino)methyl)benzamide]
- IC50 (A549 cells [2]; [9]): 2130 ± 130 nM
- IC50 (A549 cells [2]; range over both cell lines (A549 and HCT116) and both compounds, abstract, read-out: IC50 values against A549 and HCT116 cells): 1290 to 2130 nM
- IC50 (HCT116 cells [3]): 2030 ± 460 nM
- Selectivity ratio of HDAC1 over HDAC6 (HDAC1): (596)
- IC50 (HDAC1): 5130 nM
- Selectivity ratio of HDAC2 over HDAC6 (HDAC2): (336)
- IC50 (HDAC2): 2890 nM
- IC50 (HDAC6 [4]): 8.61 nM
- Selectivity ratio of HDAC8 over HDAC6 (HDAC8): (273)
- IC50 (HDAC8): 2350 nM
- Caspase 3, 8, and 9 cleavage (Western blot) (A549 cells [5]): dose dependent increases in caspase 3, 8, and 9 cleavage
- Cell cycle distribution, sub G1 population (A549 cells [6]): concentration dependent accumulation of A549 cells in sub G1 phase

Compound: O=C(/C=C/c1cccc(S(=O)(=O)Nc2ccccc2)c1)NO [PXD101, (E)-N-hydroxy-3–(3-(N-phenylsulfamoyl)phenyl)acrylamide]
- IC50 (A549 cells [7]): 780 ± 70 nM
- IC50 (HCT116 cells [8]): 130 ± 10 nM

Compound: O=C(CCCCCCC(=O)Nc1ccccc1)NO [SAHA, N^1-hydroxy-N^8-phenyloctanediamide]
- IC50 (A549 cells [7]): 1020 ± 150 nM

From article PMC7655065, “Effect of 3-subsitution of quinolinehydroxamic acids on selectivity of histone deacetylase isoforms” (Journal of Enzyme Inhibition and Medicinal Chemistry, 2020)
